The assay concerns the target AaORCO+AaOR8 receptors (Aedes aegypti, UniProt A0A1S4FVR6). Nature of the assay: Automatic planar patch-clamp electrophysiology in U2OS cells co-transduced with AaORCO and AaOR8. The format is cell-based. As to the method:
In this example, U2OS cells were co-transduced with AaORCO and AaOR8 channel subunits overnight and stimulated with increasing concentrations of 1-octen-3-ol ligand in the absence and presence of 10 μM VUAA1.
Cell culture and transduction. U2OS and HEK293 cells were grown on T150 flasks with Dulbecco's modified eagle medium supplemented with 10% fetal bovine serum and 1% Penicillin/Streptomycin in a 37° C. incubator under a 5% CO2 atmosphere. For transductions, cell cultures were pooled at 1.5×10^6 cell/ml, centrifuged at 1000 xg for 5 min, and resuspended in fresh medium. Resuspended cultures were inoculated at a multiplicity of 1-20 pfu/cell with baculovirus encoding AaORCO or AaORCO with AaOR8, AaOR2 or AaOR11 and AgORCO with AgOR8 or AgOR2. A further untransduced culture was used as a control. Cultures were maintained in an incubator at 37° C. and used for electrophysiology or FLIPR measurements 1-4 days after infection.
Planar Patch Clamp Electrophysiology Assay. […] On the day of the assay, the cells were lifted, washed once in PBS and loaded on a Nanion Synchropatch384 instrument and currents were recorded using voltage clamp in standard whole-cell configuration at-90 mV on an 8-hole version chip (NPC-384T).
Background: Patch clamp records ionic current or voltage across a cell membrane.

pEC50: −log10 of the molar value. Like-named read-outs stand apart in the source and are kept apart here.

Chain of AaORCO+AaOR8 receptors (Q178U6 whole entry): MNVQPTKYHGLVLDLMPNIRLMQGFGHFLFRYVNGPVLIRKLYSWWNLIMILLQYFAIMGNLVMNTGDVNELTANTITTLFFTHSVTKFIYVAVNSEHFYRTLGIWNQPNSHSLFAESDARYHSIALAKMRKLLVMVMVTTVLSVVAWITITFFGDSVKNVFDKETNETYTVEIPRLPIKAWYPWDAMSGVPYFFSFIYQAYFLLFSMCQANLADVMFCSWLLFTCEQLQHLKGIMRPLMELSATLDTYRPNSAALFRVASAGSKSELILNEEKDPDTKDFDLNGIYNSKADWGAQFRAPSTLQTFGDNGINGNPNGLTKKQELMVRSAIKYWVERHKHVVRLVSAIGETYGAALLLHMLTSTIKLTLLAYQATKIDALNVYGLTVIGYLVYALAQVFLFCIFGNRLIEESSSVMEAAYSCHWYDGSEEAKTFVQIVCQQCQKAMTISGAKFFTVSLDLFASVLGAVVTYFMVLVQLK
Chain of AaORCO+AaOR8 receptors (A0A1S4FVR6 entry or part of it): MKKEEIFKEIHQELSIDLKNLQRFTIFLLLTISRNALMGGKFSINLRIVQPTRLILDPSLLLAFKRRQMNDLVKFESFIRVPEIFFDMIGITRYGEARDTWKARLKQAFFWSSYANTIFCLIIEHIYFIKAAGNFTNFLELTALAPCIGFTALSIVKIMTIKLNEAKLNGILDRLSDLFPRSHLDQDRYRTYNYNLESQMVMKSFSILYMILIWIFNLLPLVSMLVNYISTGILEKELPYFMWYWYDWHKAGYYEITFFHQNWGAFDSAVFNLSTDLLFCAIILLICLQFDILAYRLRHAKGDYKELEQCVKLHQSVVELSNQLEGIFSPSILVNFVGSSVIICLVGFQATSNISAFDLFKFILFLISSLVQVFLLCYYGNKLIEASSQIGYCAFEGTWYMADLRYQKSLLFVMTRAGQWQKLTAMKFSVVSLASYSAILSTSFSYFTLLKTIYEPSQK

On to `C=CC(O)CCCCC` (centres unmarked) [1-octen-3-ol], for which the pEC50 is 6.27 (absence of VUAA1, read-out: EC50, dose-dependent activation of AaORCO+AaOR8 channel currents) and 7.00 (presence of 10 μM VUAA1, read-out: EC50, activation of AaORCO+AaOR8 channel currents in the presence of VUAA1 (left-shift)).
